This is an account of results in PubChem BioAssay (NCI).

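Tested at 5 concentrations; 48 h exposure; 96-well plates; endpoints linearly interpolated, else capped at highest concentration. At the GI50, growth is halved. The concentration for full growth arrest is given as TGI.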

The first assay concerns HT29 colon. The assay can be described thus: growth of human tumour cells (NCI), 48 h.
Consider `Cn1c2ccccc2c2c(=O)c3ccccc3[nH]c21`, for which the GI50 is 54 µM and the TGI is above 100 µM.

For the next assay, the system named is UACC-62 melanoma. The assay can be described thus: growth of human tumour cells (NCI), 48 h.
Regarding `CC1(c2ccccc2)CC(c2ccccc2)=NO1` (configuration not stated), the TGI was above 100 µM.
`COc1cccc(/C=C2\CCC(C)(CN(C)C)C2=O)c1` (configuration not stated) returned a TGI above 100 µM.
As for `CCN(CC)CCNC(=O)c1cn2ncnc(Oc3ccc(NC(=O)Nc4ccc(Cl)c(C(F)(F)F)c4)c(F)c3)c2c1C`, the GI50 was 1.68 µM and the TGI was determined as 3.15 µM.
Compound `Cl[Si]1(Cl)Oc2ccccc2O[Si](Cl)(Cl)Oc2ccccc2O1` came in with a TGI of 20.9 µM.
Consider `OC(c1ccc(Br)cc1)(c1cccs1)C1CC1` (configuration not stated), for which the TGI amounted to 33.3 µM.
`COc1ccc(-c2nnc(N3CCN(C(=O)CN4CCN(c5ccc(OC)cc5)CC4)CC3)nc2-c2ccc(OC)cc2)cc1`: the GI50 was 12.1 µM and the TGI stood at 53.1 µM.
The compound `C[n+]1c2ccccc2cc2c(CNC(CCCN=C(N)N)C(=O)O)cccc21` (configuration not stated) yielded a TGI of 2.32 µM.
The same measure, in the same setting: in the case of `Cc1cc2c(Br)cc(Br)c(O)c2nc1C(=O)c1ccccc1` it was 15.3 µM.
Consider `Cn1cc(-c2csc(-c3cn(C)c4ccccc34)n2)c2cnccc21`, for which the GI50 is 1.72 µM and the TGI came to 3.25 µM.
With `COc1ccccc1/C=C/C(=O)/C=C/c1ccccc1O`, the GI50 is 1.16 µM and the TGI was 2.55 µM.
`CC(=O)[O-].CC(=O)[O-].CC(=O)[O-].CC(=O)[O-].[Mo+2].[Mo+2]`: the GI50 was above 100 µM and the TGI is above 100 µM.
Regarding `COc1ccc(Nc2nc3ccccc3nc2-c2cccs2)cc1`, the TGI is above 100 µM.
`CC(CC(=O)Nc1ccc(NC(=O)CC(C)N=NC(N)=S)cc1)N=NC(N)=S` (configuration not stated) came in with a TGI above 100 µM.
`C#CCC(N)(CO)C(=O)O` (configuration not stated) registered a TGI above 100 µM.
Consider `O=C(O)CCC(NC(=S)S)C(=O)O.[Na+].[Zn+2]` (configuration not stated), for which the GI50 is above 50 µM and the TGI is above 50 µM.
As for `Cc1cn(C2OC(C)(CO)C(O)C2O)c(=O)[nH]c1=O` (configuration not stated), the TGI is above 100 µM.
For `C[C@H](Cn1ncnn1)Nc1ncc2cc(Oc3ccc(F)cc3F)c(=O)n(C)c2n1`, the GI50 is above 25 µM and the TGI was above 25 µM.
In turn, `CCCCCCCCCCCCCC(=O)OCC1OC(=O)CC1O` (configuration not stated) registered a TGI above 100 µM.
Consider `N=S(c1ccccc1)c1ccccc1[N+](=O)[O-]` (configuration not stated), for which the TGI is 36.2 µM.
Take `CCCCCCCCCCCCCCCCCCNC(=O)[C@H]1CSC(c2cccs2)N1` (some centres not stated): the GI50 is 0.908 µM and the TGI amounted to 1.69 µM.
For `Cn1c2ccccc2c2c(=O)c3ccccc3[nH]c21`, the GI50 is 69.7 µM and the TGI is above 100 µM.

The subject of the next assay is EKVX NSCLC. Put plainly: growth of human tumour cells (NCI), 48 h.
As for `CC1(c2ccccc2)CC(c2ccccc2)=NO1` (configuration not stated), the TGI was above 100 µM.
In turn, `COc1cccc(/C=C2\CCC(C)(CN(C)C)C2=O)c1` (configuration not stated) registered a TGI above 100 µM.
Consider `CCN(CC)CCNC(=O)c1cn2ncnc(Oc3ccc(NC(=O)Nc4ccc(Cl)c(C(F)(F)F)c4)c(F)c3)c2c1C`, for which the GI50 was 1.92 µM and the TGI came out at 3.34 µM.
The compound `Cl[Si]1(Cl)Oc2ccccc2O[Si](Cl)(Cl)Oc2ccccc2O1` displayed a TGI above 100 µM.
Compound `OC(c1ccc(Br)cc1)(c1cccs1)C1CC1` (configuration not stated) showed a TGI above 100 µM.
Turning to `COc1ccc(-c2nnc(N3CCN(C(=O)CN4CCN(c5ccc(OC)cc5)CC4)CC3)nc2-c2ccc(OC)cc2)cc1`, the GI50 is 7.86 µM and the TGI was above 65.9 µM.
For the compound `C[n+]1c2ccccc2cc2c(CNC(CCCN=C(N)N)C(=O)O)cccc21` (configuration not stated), the GI50 was 2.68 µM and the TGI turned out to be 10.2 µM.
With `Cc1cc2c(Br)cc(Br)c(O)c2nc1C(=O)c1ccccc1`, the TGI was above 100 µM.
Consider `Cn1cc(-c2csc(-c3cn(C)c4ccccc34)n2)c2cnccc21`, for which the GI50 is 1.56 µM and the TGI came to 3.39 µM.
Turning to `COc1ccccc1/C=C/C(=O)/C=C/c1ccccc1O`, the GI50 is 1.75 µM and the TGI was 5.63 µM.
With `CC(=O)[O-].CC(=O)[O-].CC(=O)[O-].CC(=O)[O-].[Mo+2].[Mo+2]`, the GI50 was above 100 µM and the TGI is above 100 µM.
`COc1ccc(Nc2nc3ccccc3nc2-c2cccs2)cc1` came in with a TGI above 100 µM.
On the same count and under the same terms, in the case of `CC(CC(=O)Nc1ccc(NC(=O)CC(C)N=NC(N)=S)cc1)N=NC(N)=S` (configuration not stated) it was above 100 µM; in that of `C#CCC(N)(CO)C(=O)O` (configuration not stated), above 100 µM.
Same read-out and setting: in the case of `CCCCCCCCCCCCCC(=O)OCC1OC(=O)CC1O` (configuration not stated) it was above 100 µM.
With `N=S(c1ccccc1)c1ccccc1[N+](=O)[O-]` (configuration not stated), the TGI was 38.5 µM.
Take `Cn1c2ccccc2c2c(=O)c3ccccc3[nH]c21`: the GI50 was 44.1 µM and the TGI was above 100 µM.

In another assay the test system is SK-MEL-28 melanoma. The assay can be described thus: growth of human tumour cells (NCI), 48 h.
The compound `CC1(c2ccccc2)CC(c2ccccc2)=NO1` (configuration not stated) showed a TGI above 100 µM.
In turn, `COc1cccc(/C=C2\CCC(C)(CN(C)C)C2=O)c1` (configuration not stated) had a TGI above 100 µM.
Turning to `CCN(CC)CCNC(=O)c1cn2ncnc(Oc3ccc(NC(=O)Nc4ccc(Cl)c(C(F)(F)F)c4)c(F)c3)c2c1C`, the GI50 is 1.47 µM and the TGI is 2.79 µM.
For the compound `Cl[Si]1(Cl)Oc2ccccc2O[Si](Cl)(Cl)Oc2ccccc2O1`, the TGI was above 100 µM.
In turn, `OC(c1ccc(Br)cc1)(c1cccs1)C1CC1` (configuration not stated) registered a TGI of 51.3 µM.
As to `COc1ccc(-c2nnc(N3CCN(C(=O)CN4CCN(c5ccc(OC)cc5)CC4)CC3)nc2-c2ccc(OC)cc2)cc1`, the GI50 was 13.4 µM and the TGI amounted to 34.6 µM.
For `C[n+]1c2ccccc2cc2c(CNC(CCCN=C(N)N)C(=O)O)cccc21` (configuration not stated), the TGI was 3.65 µM.
On the same count and under the same terms, in the case of `Cc1cc2c(Br)cc(Br)c(O)c2nc1C(=O)c1ccccc1` it was above 100 µM.
Consider `Cn1cc(-c2csc(-c3cn(C)c4ccccc34)n2)c2cnccc21`, for which the GI50 is 1.77 µM and the TGI is 3.21 µM.
Consider `COc1ccccc1/C=C/C(=O)/C=C/c1ccccc1O`, for which the GI50 was 1.56 µM and the TGI is 3.72 µM.
As for `CC(=O)[O-].CC(=O)[O-].CC(=O)[O-].CC(=O)[O-].[Mo+2].[Mo+2]`, the GI50 was above 100 µM and the TGI is above 100 µM.
